Assay results from patent US8324179B2, “Nucleoside analogs for antiviral treatment” (Gilead Sciences, Inc., priority 2007, dated 2012).
Read-outs that look alike come from different tables or passages of the source.

How the values were obtained:
Replicon cells = test: HCV EC50 determination, replicon luciferase assay; format: cell-based; details: 3 days, luciferase activity, read-out: Replicon inhibiting potency EC50
Experimental: Replicon cells were seeded in 96-well plates at a density of 8×10^3 cells per well in 100 μL of culture medium, excluding Geneticin. Compound was serially diluted in 100% DMSO and then added to the cells at a 1:200 dilution, achieving a final concentration of 0.5% DMSO and a total volume of 200 μL. Plates were incubated at 37° C. for 3 days, after which culture medium was removed and cells were lysed in lysis buffer provided by Promega's luciferase assay system. Following the manufacturer's instruction, 100 μL of luciferase substrate was added to the lysed cells and luciferase activity was measured in a TopCount luminometer.

HCV Δ21 NS5b polymerase = biological target: T1, HCV Δ21 NS5b polymerase (Hepatitis C virus genotype 1b, UniProt P26663); test: NS5b polymerase assay (HCV IC50 determination); format: biochemical
T1 construct: 75 nM HCV Δ21 NS5b polymerase
Experimental: Assay Protocol: NS5b polymerase assay (40 μL) was assembled by adding 28 μL polymerase mixture (final concentration: 50 mM Tris-HCl at pH 7.5, 10 mM KCL, 5 mM MgCl2, 1 mM DTT, 10 mM EDTA, 4 ng/μL of RNA template, and 75 nM HCV Δ21 NS5b polymerase) to assay plates followed by 4 μL of compound dilution. The polymerase and compound were pre-incubated at 35° C. for 10 minute before the addition of 8 μL of nucleotide substrate mixture (33P-α-labeled competing nucleotide at KM and 0.5 mM of the remaining three nucleotides). The assay plates were covered and incubated at 35° C. for 90 min. Reactions were then filtered through 96-well DEAE-81 filter plates via vacuum. The filter plates were then washed under vacuum with multiple volumes of 0.125 M NaHPO4, water, and ethanol to remove unincorporated label. Plates were then counted on TopCount to assess the level of product synthesis over background controls. The IC50 value was determined using Prism fitting program.

T1 sequence (P26663 2420-2989, stated change not applied): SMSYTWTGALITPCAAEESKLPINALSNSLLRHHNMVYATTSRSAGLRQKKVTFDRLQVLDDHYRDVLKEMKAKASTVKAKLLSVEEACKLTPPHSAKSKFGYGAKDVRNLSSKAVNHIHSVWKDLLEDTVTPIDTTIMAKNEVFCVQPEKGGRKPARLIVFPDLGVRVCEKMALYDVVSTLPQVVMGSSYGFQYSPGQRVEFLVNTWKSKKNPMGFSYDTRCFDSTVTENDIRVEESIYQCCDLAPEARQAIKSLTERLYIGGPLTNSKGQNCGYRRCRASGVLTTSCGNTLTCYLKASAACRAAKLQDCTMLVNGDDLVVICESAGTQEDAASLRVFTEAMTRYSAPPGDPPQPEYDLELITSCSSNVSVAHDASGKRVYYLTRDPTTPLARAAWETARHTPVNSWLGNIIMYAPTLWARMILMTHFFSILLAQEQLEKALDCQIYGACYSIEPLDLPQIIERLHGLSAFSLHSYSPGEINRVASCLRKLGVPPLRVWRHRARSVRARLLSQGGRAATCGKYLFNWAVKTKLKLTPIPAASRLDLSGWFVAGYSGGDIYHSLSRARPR

Nc1nc(N)c2ncn(C3OC(C=CP(=O)(O)O)CC3O)c2n1 (stereo not shown) [Compound 13.2, {2-[5-(2,6-Diamino-purin-9-yl)-4-hydroxy-tetrahydro-furan-2-yl]-vinyl}-phosphonic acid] showed an EC50 (Replicon cells; Hepatitis C virus, 72 h) of over 100 µM.

With O=c1ccn([C@@H]2O[C@H](/C=C/P(=O)(O)O)C[C@H]2O)c(=O)[nH]1 [Compound 50.6] the EC50 (Replicon cells; Hepatitis C virus, 72 h) was over 100 µM.

COC1C(O)C(C=CP(=O)(O)OP(=O)(O)OP(=O)(O)O)OC1n1cnc2c(=O)[nH]c(N)nc21 (stereo not shown) [Compound 16.95] was tested, and the IC50 (HCV Δ21 NS5b polymerase) was 10 to 100 µM.

In the case of Nc1ncnc2c1nnn2C1OC(CCP(=O)(O)O)C(O)C1O (stereo not shown) [Compound 6.7, {2-[5-(7-Amino-[1,2,3]triazolo[4,5-d]pyrimidin-3-yl)-3,4-dihydroxy-tetrahydro-furan-2-yl]-ethyl}-phosphonic acid], the EC50 (Replicon cells; Hepatitis C virus, 72 h) is reported as over 100 µM.

CNc1ncnc2c1ncn2C1OC(C=CP(=O)(O)O)CC1O (stereo not shown) [Compound 47.2, {2-[4-Hydroxy-5-(6-methylamino-purin-9-yl)-tetrahydro-furan-2-yl]-vinyl}-phosphonic acid] was tested, and the EC50 (Replicon cells; Hepatitis C virus, 72 h) was over 100 µM.

In the case of CCCCOC(=O)[C@H](C)NP(=O)(/C=C/[C@@H]1C[C@@H](O)[C@H](n2cnc3c(=O)[nH]c(N)nc32)O1)N[C@@H](C)C(=O)OCCCC [Compound 9.11], the EC50 (Replicon cells) is reported as under 10 µM.

In the case of COC1C(O)C(C=CP(=O)(O)O)OC1n1cnc2c(=O)[nH]c(N)nc21 (stereo not shown) [Compound 16.9, {2-[5-(2-Amino-6-oxo-1,6-dihydro-purin-9-yl)-3-hydroxy-4-methoxy-tetrahydro-furan-2-yl]-vinyl}-phosphonic acid], the EC50 (Replicon cells; Hepatitis C virus, 72 h) is reported as over 100 µM.

For Nc1nc2c(nnn2C2OC(C=CP(=O)(O)O)CC2O)c(=O)[nH]1 (stereo not shown) [Compound 10.2, {2-[5-(5-Amino-7-oxo-6,7-dihydro-[1,2,3]triazolo[4,5-d]pyrimidin-3-yl)-4-hydroxy-tetrahydro-furan-2-yl]-vinyl}-phosphonic acid], the EC50 (Replicon cells; Hepatitis C virus, 72 h) was 10 to 100 µM.

Nc1nc(N)c2nnn(C3OC(C=CP(=O)(O)OP(=O)(O)OP(=O)(O)O)CC3O)c2n1 (stereo not shown) [Compound 53.4] gave an IC50 (HCV Δ21 NS5b polymerase) of over 100 µM.

CCCCOC(=O)[C@H](C)NP(=O)(/C=C/[C@@H]1C[C@@H](O)[C@H](n2cnc(C(N)=O)n2)O1)N[C@@H](C)C(=O)OCCCC [Compound 54.3] was tested, and the EC50 (Replicon cells; Hepatitis C virus, 72 h) was over 100 µM.

For Nc1ncnc2c1nnn2C1OC(C=CP(=O)(O)OP(=O)(O)OP(=O)(O)O)CC1O (stereo not shown) [Compound 38.4], the IC50 (HCV Δ21 NS5b polymerase) was 10 to 100 µM.

Nc1nc2c(nnn2[C@@H]2O[C@H](/C=C/P(=O)(O)OP(=O)(O)OP(=O)(O)O)C[C@H]2O)c(=O)[nH]1 [Compound 10.4] showed an IC50 (HCV Δ21 NS5b polymerase) of over 100 µM.

Work on CCCCOC(=O)[C@H](C)NP(=O)(/C=C/[C@H]1O[C@@H](n2cnc3c(N)ncnc32)[C@@H](F)[C@@H]1O)N[C@@H](C)C(=O)OCCCC [Compound 56.6] yielded an EC50 (Replicon cells) of under 10 µM.

With Nc1ncnc2c1ncn2C1OC(C=CP(=O)(O)O)CC1O (stereo not shown) [Compound 12.2, {2-[5-(6-Amino-purin-9-yl)-4-hydroxy-tetrahydro-furan-2-yl]-vinyl}-phosphonic acid] the EC50 (Replicon cells; Hepatitis C virus, 72 h) was under 10 µM.

Compound CCCCOC(=O)[C@H](C)NP(=O)(/C=C/[C@@]1(N=[N+]=[N-])O[C@@H](n2ccc(=O)[nH]c2=O)[C@H](O)[C@@H]1O)N[C@@H](C)C(=O)OCCCC [Compound 48.7] has an EC50 (Replicon cells; Hepatitis C virus, 72 h) of 10 to 100 µM.

Compound Nc1ncnc2c1ncn2[C@@H]1O[C@H](/C=C/P(=O)(O)OP(=O)(O)OP(=O)(O)O)[C@@H](O)[C@H]1F [Compound 55.7] has an IC50 (HCV Δ21 NS5b polymerase) of under 10 µM.

Compound O=C1C=Cc2nn([C@@H]3O[C@H](/C=C/P(=O)(O)OP(=O)(O)OP(=O)(O)O)C[C@H]3O)c3ncnc(c23)N1 [Compound 52.6] has an IC50 (HCV Δ21 NS5b polymerase) of under 10 µM.

COC1C(O)C(C=CP(=O)(O)O)OC1n1ccc(N)nc1=O (stereo not shown) [Compound 17.5, {2-[5-(4-Amino-2-oxo-2H-pyrimidin-1-yl)-3-hydroxy-4-methoxy-tetrahydro-furan-2-yl]-vinyl}-phosphonic acid] showed an EC50 (Replicon cells; Hepatitis C virus, 72 h) of over 100 µM.

In the case of CCCCOC(=O)[C@H](C)NP(=O)(/C=C/[C@@H]1C[C@@H](O)[C@H](n2nnc3c(=O)[nH]c(N)nc32)O1)N[C@@H](C)C(=O)OCCCC [Compound 10.3], the EC50 (Replicon cells; Hepatitis C virus, 72 h) is reported as over 100 µM.

Work on NC(=O)c1ncn([C@@H]2O[C@H](/C=C/P(=O)(O)OP(=O)(O)OP(=O)(O)O)C[C@H]2O)n1 [Compound 54.4] yielded an IC50 (HCV Δ21 NS5b polymerase) of over 100 µM.

Nc1ncnc2c1ncn2[C@@H]1O[C@H](/C=C/P(=O)(O)O)[C@@H](O)[C@H]1O [Compound 24.4, (E)-2-((2R,3S,4R,5R)-5-(6-amino-9H-purin-9-yl)-3,4-dihydroxy-tetrahydrofuran-2-yl)vinylphosphonic acid] showed an EC50 (Replicon cells; Hepatitis C virus, 72 h) of over 100 µM.

“{2-[5-(4-Amino-2-oxo-2H-pyridin-1-yl)-4-hydroxy-tetrahydro-furan-2-yl]-vinyl}-phosphonic acid [Compound 11.2]” gave an EC50 (Replicon cells) of over 100 µM.

In the case of Nc1nc2c(ncn2C2OC(C=CP(=O)(O)O)C(O)C2O)c(=O)[nH]1 (stereo not shown) [Compound 18.8, {2-[5-(2-Amino-6-oxo-1,6-dihydro-purin-9-yl)-3,4-dihydroxy-tetrahydro-furan-2-yl]-vinyl}-phosphonic acid], the EC50 (Replicon cells; Hepatitis C virus, 72 h) is reported as 10 to 100 µM.

In the case of CNc1nc(N)nc2c1ncn2C1OC(C=CP(=O)(O)O)CC1O (stereo not shown) [Compound 46.3, {2-[5-(2-Amino-6-methylamino-purin-9-yl)-4-hydroxy-tetrahydro-furan-2-yl]-vinyl}-phosphonic acid], the EC50 (Replicon cells; Hepatitis C virus, 72 h) is reported as over 100 µM.

CN(NS(C)(=O)=O)c1ncnc2c1ncn2[C@@H]1O[C@H](/C=C/P(=O)(O)OP(=O)(O)OP(=O)(O)O)C[C@H]1O [Compound 60.5] was tested, and the IC50 (HCV Δ21 NS5b polymerase) was over 100 µM.

With CCCCOC(=O)[C@H](C)NP(=O)(/C=C/[C@H]1O[C@@H](n2cnc3c(N)ncnc32)[C@H](F)[C@@H]1O)N[C@@H](C)C(=O)OCCCC [Compound 55.8] the EC50 (Replicon cells; Hepatitis C virus, 72 h) was 10 to 100 µM.

For O=c1ccn([C@@H]2O[C@H](/C=C/P(=O)(O)OP(=O)(O)OP(=O)(O)O)[C@@H](O)[C@H]2F)c(=O)[nH]1 [Compound 58.7], the IC50 (HCV Δ21 NS5b polymerase) was 10 to 100 µM.

For Nc1ncnc2c1cnn2[C@@H]1O[C@H](/C=C/P(=O)(O)O)[C@@H](O)[C@H]1O [Compound 25.3, (E)-2-((2R,3S,4R,5R)-5-(4-amino-1H-pyrazolo[3,4-d]pyrimidin-1-yl)-3.4-dihydroxy-tetrahydrofuran-2-yl)vinylphosphonic acid], the EC50 (Replicon cells) was over 100 µM.

Work on C[C@@]1(O)[C@H](O)[C@@H](/C=C/P(=O)(O)O)O[C@H]1n1nnc2c(N)ncnc21 [Compound 27.8, (E)-2-((2R,3R,4R,5R)-5-(7-amino-3H-[1,2,3]triazolo[4,5-d]pyrimidin-3-yl)-3,4-dihydroxy-4-methyl-tetrahydrofuran-2-yl)vinylphosphonic acid] yielded an EC50 (Replicon cells; Hepatitis C virus, 72 h) of over 100 µM.

With CC(=O)Nc1nc2c(ncn2C2OC(C=CP(=O)(O)O)CC2OC(=O)c2ccccc2)c(=O)[nH]1 (stereo not shown) [Compound 9.10, Benzoic acid 2-(2-acetylamino-6-oxo-1,6-dihydro-purin-9-yl)-5-(2-phosphono-vinyl)-tetrahydro-furan-3-yl ester] the EC50 (Replicon cells; Hepatitis C virus, 72 h) was 10 to 100 µM.

Work on Nc1nc2c(ncn2[C@@H]2O[C@H](/C=C/P(=O)(O)OP(=O)(O)OP(=O)(O)O)C[C@H]2O)c(=O)[nH]1 [Compound 9.12] yielded an IC50 (HCV Δ21 NS5b polymerase) of over 100 µM.

Nc1ncnc2c1ncn2[C@@H]1O[C@H](/C=C/P(=O)(O)OP(=O)(O)OP(=O)(O)O)[C@@H](O)[C@@H]1F [Compound 56.5] gave an IC50 (HCV Δ21 NS5b polymerase) of over 100 µM.

For Nc1ncnc2c1nnn2[C@@H]1O[C@H](/C=C/P(=O)(O)OP(=O)(O)OP(=O)(O)O)[C@@H](O)[C@H]1O [Compound 6.8], the IC50 (HCV Δ21 NS5b polymerase) was over 100 µM.

For Nc1ncnc2c1nnn2[C@@H]1O[C@H](/C=C/P(=O)(O)O)C[C@H]1O [Compound 38.2, (E)-2-((2S,4R,5R)-5-(7-amino-3H-[1,2,3]triazolo[4,5-d]pyrimidin-3-yl)-4-hydroxy-tetrahydrofuran-2-yl)vinylphosphonic acid], the EC50 (Replicon cells; Hepatitis C virus, 72 h) was over 100 µM.
